Laboratory results as given in ChEMBL document CHEMBL1128168, “An efficient synthesis of the benzhydrylpiperazine delta opioid agonist (+)-BW373U86” (Bioorg Med Chem Lett, 1995).

Target: Delta-type opioid receptor (Homo sapiens) (UniProt P41143)
Experiment: Compound was tested for delta-opioid receptor agonistic activity;A - found to be highly selective
Assay type: functional
Details: filed as agonist

Chain of Delta-type opioid receptor (Homo sapiens) (P41143 whole entry): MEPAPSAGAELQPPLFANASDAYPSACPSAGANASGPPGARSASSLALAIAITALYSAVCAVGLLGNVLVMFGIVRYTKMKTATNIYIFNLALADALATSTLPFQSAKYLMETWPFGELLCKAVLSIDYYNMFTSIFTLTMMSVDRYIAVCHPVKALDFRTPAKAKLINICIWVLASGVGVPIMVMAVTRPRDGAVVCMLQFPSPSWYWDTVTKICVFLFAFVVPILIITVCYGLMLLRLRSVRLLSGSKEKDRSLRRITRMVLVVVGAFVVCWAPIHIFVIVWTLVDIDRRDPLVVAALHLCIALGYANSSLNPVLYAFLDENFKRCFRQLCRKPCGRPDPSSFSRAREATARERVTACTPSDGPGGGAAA

Q: For `C=CCN1C[C@H](C)N([C@H](c2ccc(C(=O)N(CC)CC)cc2)c2cccc(O)c2)C[C@H]1C`, which Activity is on record?
A: Agonist
